How the values were obtained:
Type in all cases: cell-based
[1] = test system: human chondrocyte cell line (SW1353); assay: Hyaluronic acid production test (ELISA); conditions: positive control 10 mmol/L
Description: Using proliferation medium (DMEM/F-12 supplemented with 10% FBS and 1% penicillin-streptomycin mixture), a human chondrocyte cell line (SW1353, ATCC, HTB-94) was seeded into a T-75 flask and cultured in a CO2 incubator until 60-80% confluency. The cells were then detached from the T-75 flask using 0.25% trypsin-EDTA and phenol red. Subsequently, using the proliferation medium, the human chondrocytes were seeded into a 96-well plate at a density of 10,000 cells/100 μL/well and cultured in a CO2 incubator.
The following day, the medium was replaced with 100 μL of assay medium (DMEM/F-12 supplemented with 1% FBS and 1% penicillin-streptomycin mixture), containing each of test substances 1 through 7 at final concentrations of 5% and 20% or a positive control substance at a final concentration of 10 mmol/L, or assay medium without test substances or positive control. The human chondrocytes were cultured in a CO2 incubator for 24 or 72 hours.
The culture supernatant was collected, and the amount of hyaluronic acid was measured using an ELISA kit (Hyaluronan Quantikine ELISA Kit, R&D Systems) and a multi-spectral microplate reader (Varioskan Flash, Thermo Fisher Scientific).

[2] = test system: normal human umbilical vein endothelial cells; assay: Prostacyclin production test (6-keto prostaglandin Fla ELISA); conditions: positive control 10 μM, 24 hours
Description: Normal human umbilical vein endothelial cells (Lonza, CC2519AS) were seeded into a T-75 flask using medium (EGM-2, Lonza, CC-3162) and cultured in a CO2 incubator until 60% to 80% confluence. The cells were then detached from the T-75 flask using 0.05% trypsin-EDTA and phenol red. The detached cells were seeded into a 96-well plate at 10,000 cells/100 μL/well in medium and cultured in a CO2 incubator. The next day, the medium was replaced with 100 μL of medium containing test substances 1 through 7 at final concentrations of 5% and 20%, and the positive control substance at a final concentration of 10 μM, or medium without test or positive control substances. The cells were then cultured for 24 hours in a CO2 incubator. The culture supernatant was collected, and the amount of 6-keto prostaglandin Fla, a metabolite of prostacyclin, was measured using an ELISA kit (Abcam, ab133023) and a multi-spectral microplate reader (Varioskan Flash, Thermo Fisher Scientific).

[3] = test system: adipocytes differentiated from normal human subcutaneous preadipocytes; assay: Fat-decomposing assay (free glycerol in culture supernatant); conditions: positive control 10 μM, 24 hours
Description: Normal human subcutaneous preadipocytes (Lonza, PT-5020) were seeded into a T-75 flask using a proliferation medium (PGM-2, 10% FBS, 2 mM L-glutamine, 50 μg/mL gentamicin, and 37 ng/mL amphotericin B-supplemented PBM, Lonza, PT-8002) and cultured in a CO2 incubator (37° C., 5% CO2, humidified) until they reached 60% to 80% confluence. The cells were then detached using 0.25% trypsin-EDTA and centrifuged. Subsequently, the cells were seeded into a 96-well plate at 10,000 cells/100 μL/well in proliferation medium and incubated in a CO2 incubator. The following day, the medium was replaced with 100 μL of differentiation medium (PGM-2 supplemented with insulin, dexamethasone, indomethacin, and isobutyl-methylxanthine; Lonza, PT-8002), and the cells were cultured for seven days to induce differentiation of preadipocytes into adipocytes. […] Thereafter, the culture supernatant was collected, and the amount of free glycerol in the supernatant was measured using a fat-decomposing assay kit (Cayman, 10009381). […] Specifically, a multi-spectral microplate reader (Varioskan Flash, Thermo Fisher Scientific) was used to measure the absorbance of the supernatant at a wavelength of 540 nm, and the relative concentration of free glycerol was calculated. […]

[4] = test system: normal human skeletal muscle myoblasts; assay: Myotube differentiation promotion test (anti-MHC staining, differentiation index); conditions: positive control 50 nmol/L, 3 days
Description: Using proliferation medium (SkGM-2, Lonza, CC-3245), normal human skeletal muscle myoblasts (Lonza, CC-2580) were seeded into a T-75 flask and cultured in a CO2 incubator until approximately 60% confluence. The cells were then detached from the T-75 flask using 0.05% trypsin-EDTA and phenol red. The detached cells were seeded into a 96-well plate at 7,500 cells/100 μL/well in proliferation medium and cultured in a CO2 incubator.
The next day, the medium was replaced with 100 μL of differentiation medium (2% horse serum-supplemented DMEM: F12) containing test substances 1 through 7 at final concentrations of 5% and 20% and the positive control substance at a final concentration of 50 nmol/L, or differentiation medium without test or positive control substances. The cells were then cultured for 3 days in a CO2 incubator to induce differentiation of myoblasts into myotubes.
Subsequently, the medium was removed from the wells, and 100 μL of 4% paraformaldehyde at 4° C. was added to each well, followed by incubation at 4° C. for 15 minutes to fix the cells. […]
From the captured images, the number of cell nuclei and the number of nuclei positive for myosin heavy chain were measured, and the differentiation index I (%) was calculated according to formula (1) below. […]

Compound: CC(=O)N[C@H]1C(O)O[C@H](CO)[C@@H](O)[C@@H]1O (some centres unmarked) [N-acetylglucosamine]
- hyaluronic acid production compared to the control ([1]; cultured 24 hours): significantly higher
- hyaluronic acid production compared to the control ([1]; cultured 72 hours): significantly higher

Compound: CCCCC/C=C\C/C=C\C/C=C\C/C=C\CCCC(=O)O [arachidonic acid]
- levels of 6-keto prostaglandin Fla compared to the control [2]: significantly higher

Compound: CC(C)NCC(O)c1ccc(O)c(O)c1 (centres unmarked) [isoproterenol]
- amount of fat-decomposition (free glycerol) compared to the control [3]: significantly higher

Compound: insulin
- differentiation index to myotubes compared to the control [4]: significantly higher

Source: patent publication US20250127821A1, “PHARMACEUTICAL COMPOSITION AND COSMETIC COMPOSITION” (I Peace, Inc., priority 2023, published 2025)
